Source: the NIST ThermoML archive (doi:10.1016/j.jct.2017.07.014)
± gives the expanded uncertainty stated by the source.

Legend:
[1] = refractive index (other wavelength) (dimensionless); details: 108 kPa, Liquid, Wavelength=632.8 nm, minimum deviation method
[2] = refractive index (other wavelength) (dimensionless); xn = mol fraction of the nth substance listed; details: 108 kPa, Liquid, Wavelength=632.8 nm, minimum deviation method, x2 = 0

CCCCn1cc[n+](C)c1.F[P-](F)(F)(F)(F)F [1-butyl-3-methylimidazolium hexafluorophosphate]
[1]
Details	refractive index
315.21 K	1.4038 ± 0.0003
317.26 K	1.4032 ± 0.0003
319.23 K	1.4027 ± 0.0003
321.47 K	1.4021 ± 0.0003
323.47 K	1.4016 ± 0.0003
325.4 K	1.4011 ± 0.0003

CCO [ethanol]
[1]
Details	refractive index
315.24 K	1.3509 ± 0.0002
317.21 K	1.3501 ± 0.0002
319.26 K	1.3492 ± 0.0002
321.31 K	1.3483 ± 0.0002
323.3 K	1.3474 ± 0.0002
325.39 K	1.3465 ± 0.0002

CCO [ethanol] + CCCCn1cc[n+](C)c1.F[P-](F)(F)(F)(F)F
[2]
Details	refractive index
315.24 K	1.3509 ± 0.0002
317.21 K	1.3501 ± 0.0002
319.26 K	1.3492 ± 0.0002
321.31 K	1.3483 ± 0.0002
323.3 K	1.3474 ± 0.0002
325.39 K	1.3465 ± 0.0002
